Source: patent publication US7423038B2, “Compounds and compositions as protein kinase inhibitors” (IRM LLC (a Delaware Limited Liability Corporation), priority 2004, dated 2008)

Assays:
JNK1α1 = molecular target: T1, JNK1α1 (Homo sapiens, UniProt P45983); assay: Upstate KinaseProfiler radio-enzymatic filter binding assay, JNK1α1; format: biochemical; conditions: at a concentration of 10 μM; read-out: percentage inhibition of JNK1α1
T1 construct: purchased Upstate (KinaseProfiler panel)
Description: (§1) Compounds of the invention are assessed for their ability to inhibit individual members of the kinase panel. The compounds are tested in duplicates at a final concentration of 10 μM following this generic protocol, Note that the kinase buffer composition and the substrates vary for the different kinases included in the “Upstate KinaseProfiler™” panel. Kinase buffer (2.5 μL, 10x—containing MnCl2 when required), active kinase (0.001-0.01 Units; 2.5 μL), specific or Poly(Glu-4-Tyr) peptide (5-500 μM or 0.01 mg/ml) in kinase buffer and kinase buffer ([…]; 5 μL) are mixed in an eppendorf on ice. A Mg/ATP mix (10 μL; 67.5 (or 33.75) mM MgCl2, 450 (or 225) μM ATP and 1 μCi/μl [γ-^32P]-ATP (3000 Ci/mmol)) is added and the reaction is incubated at about 30° C. for about 10 minutes. The reaction mixture is spotted (20 μL) onto a 2 cm×2 cm P81 (phosphocellulose, for positively charged peptide substrates) or Whatman No, 1 (for Poly (Glu-4-Tyr) peptide substrate) paper square. The assay squares are washed 4 times, for 5 minutes each, with 0.75% phosphoric acid and washed once with acetone for 5 minutes. The assay squares are transferred to a scintillation vial, 5 ml scintillation cocktail are added and ^32P incorporation (cpm) to the peptide substrate is quantified with a Beckman scintillation counter. Percentage inhibition is calculated for each reaction.

JNK2α2 = molecular target: T2, JNK2α2 (Homo sapiens, UniProt P45984); assay: Upstate KinaseProfiler radio-enzymatic filter binding assay, JNK2α2; format: biochemical; conditions: at a concentration of 10 μM; read-out: percentage inhibition of JNK2α2
T2 construct: purchased Upstate (KinaseProfiler panel)
Description: as §1

FGFR3 = molecular target: T3, FGFR3 (Homo sapiens, UniProt P22607); assay: Upstate KinaseProfiler radio-enzymatic filter binding assay, FGFR3; format: biochemical; conditions: at a concentration of 10 μM; read-out: percentage inhibition of FGFR3
T3 construct: purchased Upstate (KinaseProfiler panel)
Description: as §1

CSK = molecular target: T4, CSK (Homo sapiens, UniProt P41240); assay: Upstate KinaseProfiler radio-enzymatic filter binding assay, CSK; format: biochemical; conditions: at a concentration of 10 μM; read-out: percentage inhibition of CSK
T4 construct: purchased Upstate (KinaseProfiler panel)
Description: as §1

TrkB = molecular target: T5, TrkB (Homo sapiens, UniProt Q16620); assay: Upstate KinaseProfiler radio-enzymatic filter binding assay, TrkB; format: biochemical; conditions: at a concentration of 10 μM; read-out: percentage inhibition of TrkB
T5 construct: purchased Upstate (KinaseProfiler panel)
Description: as §1

F317L Bcr-abl = molecular target: T6, F317L Bcr-abl (Homo sapiens, UniProt P00519, F317L); assay: Antiproliferative effect on Ba/F3 cells expressing F317L Bcr-abl; format: cell-based; conditions: F317L mutant
T6 construct: BCR (fusion partner); expressed in transfected cells; host or cells: Ba/F3 (murine pro-B cells); the other entry of the earlier key: BCR (P11274, Breakpoint cluster region protein)
Description: (§2) 32D-p210 cells are plated into 96 well TC plates at a density of 15,000 cells per well. 50 μL of two fold serial dilutions of the test compound (Cmax is 40 μM) are added to each well (STI571 is included as a positive control). After incubating the cells for 48 hours at 37° C., 5% CO2, 15 μl, of MTT (Promega) is added to each well and the cells are incubated for an additional 5 hours. The optical density at 570 nm is quantified spectrophotometrically and IC50 values, the concentration of compound required for 50% inhibition, determined from a dose response curve.
(§3) Compounds of the invention are tested for their antiproliferative effect on Ba/F3 cells expressing either wild type or the mutant forms of BCR-Abl (G250E, E255V, T315I, F317L, M351T) that confers resistance or diminished sensitivity to STI571. The antiproliferative effect of these compounds on the mutant-BCR-Abl expressing cells and on the non transformed cells were tested at 10, 3.3, 1.1 and 0.37 μM as described above (in media lacking IL3). The IC50 values of the compounds lacking toxicity on the untransformed cells were determined from the dose response curves obtained as describe above.

G250E Bcr-abl = molecular target: T7, G250E Bcr-abl (Homo sapiens, UniProt P00519, G250E); assay: Antiproliferative effect on Ba/F3 cells expressing G250E Bcr-abl; format: cell-based; conditions: G250E mutant
T7 construct: BCR (fusion partner); expressed in transfected cells; host or cells: Ba/F3 (murine pro-B cells); the other entry of the earlier key: BCR (P11274, Breakpoint cluster region protein)
Description: as §2, §3

IR = molecular target: T8, IR (Homo sapiens, UniProt P06213); assay: Upstate KinaseProfiler radio-enzymatic filter binding assay, IR; format: biochemical; conditions: at a concentration of 10 μM; read-out: percentage inhibition of IR
T8 construct: purchased Upstate (KinaseProfiler panel)
Description: as §1

T315I Bcr-abl = molecular target: T9, T315I Bcr-abl (Homo sapiens, UniProt P00519, T315I); assay: Antiproliferative effect on Ba/F3 cells expressing T315I Bcr-abl; format: cell-based; conditions: T315I mutant
T9 construct: BCR (fusion partner); expressed in transfected cells; host or cells: Ba/F3 (murine pro-B cells); the other entry of the earlier key: BCR (P11274, Breakpoint cluster region protein)
Description: as §2, §3

MKK4 = molecular target: T10, MKK4 (Mus musculus, UniProt P47809); assay: Upstate KinaseProfiler radio-enzymatic filter binding assay, MKK4; format: biochemical; conditions: at a concentration of 10 μM; read-out: percentage inhibition of MKK4
T10 construct: purchased Upstate (KinaseProfiler panel)
Description: (§4) “Kinase Panel” is a list of kinases comprising Abl(human), Abl(T315I), JAK2, JAK3, ALK, JNK1α1, ALK4, KDR, Aurora-A, Lck, Blk, MAFK1, Bmx, MAPKAP-K2, BRK, MEK1, CaMKII(rat), Met, CDK1/cyclinB, p70S6K, CHK2, PAK2, CK1, PDGFRα, CK2, PDK1, c-kit, Pim-2, c-RAF, PKA(h), CSK, PKBα, cSrc, PKCα, DYRK2, Plk3, EGFR, ROCK-I, Fes, Ron, FGFR3, Ros, Flt3, SAPK2α, Fms, SGK, Fyn, SIK, GSK3β, Syk, IGF-IR, Tie-2, IKKβ, TrKB, IR, WNK3, IRAK4, ZAP-70, ITK, AMPK(rat), LIMK1, Rsk2, Ax1, LKB1, SAFK2β, BrSK2, Lyn (h), SAPK3, BTK, MAPKAP-K3, SAPK4, CaMKIV, MARK1, Snk, CDK2/cyclinA, MINK, SRPK1, CDK3/cyclinE, MKK4(m), TAK1, CDK5/p25, MKK6(h), TBK1, CDK6/cyclinD3, MLCK, TrkA, CDK7/cyclinH/MAT1, MRCKβ, TSSK1, CHK1, MSK1, Yes, CK1d, MST2, ZIPK, c-Kit (D816V), MuSK, DAPK2, NEK2, DDR2, NEK6, DMPK, PAK4, DRAK1, PAR-1Bα, EphA1, PDGFRβ, EphA2, Pim-1, EphA5, PKBβ, EphB2, PKCβI, EphB4, PKCδ, FGFR1, PKCη, FGFR2, PKCθ, FGFR4, PKD2, Fgr, PKG1β, Flt1, PRK2, Hck, PYK2, HIPK2, Ret, IKKα, RIPK2, IRR, ROCK-II(human), JNK2α2, Rse, JNK3, Rsk1(h), PI3 Kγ, PI3 Kδ and PI3-Kβ. […]
(§5) Compounds of the invention are assessed for their ability to inhibit individual members of the kinase panel. […] The assay squares are transferred to a scintillation vial, 5 ml scintillation cocktail are added and ^32P incorporation (cpm) to the peptide substrate is quantified with a Beckman scintillation counter. […]

Bmx = molecular target: T11, Bmx (Homo sapiens, UniProt P51813); assay: Upstate KinaseProfiler radio-enzymatic filter binding assay, Bmx; format: biochemical; conditions: at a concentration of 10 μM; read-out: percentage inhibition of Bmx
T11 construct: purchased Upstate (KinaseProfiler panel)
Description: as §1

Rsk1 = molecular target: T12, Rsk1 (Homo sapiens, UniProt Q15418); assay: Upstate KinaseProfiler radio-enzymatic filter binding assay, Rsk1; format: biochemical; conditions: at a concentration of 10 μM; read-out: percentage inhibition of Rsk1
T12 construct: purchased Upstate (KinaseProfiler panel)
Description: as §4, §5

c-RAF = molecular target: T13, c-RAF (Homo sapiens, UniProt P04049); assay: Upstate KinaseProfiler radio-enzymatic filter binding assay, c-RAF; format: biochemical; conditions: at a concentration of 10 μM; read-out: percentage inhibition of c-RAF
T13 construct: purchased Upstate (KinaseProfiler panel)
Description: as §1

Lck = molecular target: T14, Lck (Homo sapiens, UniProt P06239); assay: Upstate KinaseProfiler radio-enzymatic filter binding assay, Lck; format: biochemical; conditions: at a concentration of 10 μM; read-out: percentage inhibition of Lck
T14 construct: purchased Upstate (KinaseProfiler panel)
Description: as §1

M351T Bcr-abl = molecular target: T15, M351T Bcr-abl (Homo sapiens, UniProt P00519, M351T); assay: Antiproliferative effect on Ba/F3 cells expressing M351T Bcr-abl; format: cell-based; conditions: M351T mutant
T15 construct: BCR (fusion partner); expressed in transfected cells; host or cells: Ba/F3 (murine pro-B cells); the other entry of the earlier key: BCR (P11274, Breakpoint cluster region protein)
Description: as §2, §3

E255V Bcr-abl = molecular target: T16, E255V Bcr-abl (Homo sapiens, UniProt P00519, E255V); assay: Antiproliferative effect on Ba/F3 cells expressing E255V Bcr-abl; format: cell-based; conditions: E255V mutant
T16 construct: BCR (fusion partner); expressed in transfected cells; host or cells: Ba/F3 (murine pro-B cells); the other entry of the earlier key: BCR (P11274, Breakpoint cluster region protein)
Description: as §2, §3

SAPK2α = molecular target: T17, SAPK2α (Homo sapiens, UniProt Q16539); assay: Upstate KinaseProfiler radio-enzymatic filter binding assay, SAPK2α; format: biochemical; conditions: at a concentration of 10 μM; read-out: percentage inhibition of SAPK2α
T17 construct: purchased Upstate (KinaseProfiler panel)
Description: as §1

wild type Bcr-abl = molecular target: T18, wild type Bcr-abl (Homo sapiens, UniProt P00519); assay: Antiproliferative effect on Ba/F3 cells expressing wild type Bcr-abl; format: cell-based
T18 construct: BCR (fusion partner); expressed in transfected cells; host or cells: Ba/F3 (murine pro-B cells); the other entry of the earlier key: BCR (P11274, Breakpoint cluster region protein)
Description: as §2, §3

Fes = molecular target: T19, Fes (Homo sapiens, UniProt P07332); assay: Upstate KinaseProfiler radio-enzymatic filter binding assay, Fes; format: biochemical; conditions: at a concentration of 10 μM; read-out: percentage inhibition of Fes
T19 construct: purchased Upstate (KinaseProfiler panel)
Description: as §1

PDGFRα = molecular target: T20, PDGFRα (Homo sapiens, UniProt P16234); assay: Upstate KinaseProfiler radio-enzymatic filter binding assay, PDGFRα; format: biochemical; conditions: at a concentration of 10 μM; read-out: percentage inhibition of PDGFRα
T20 construct: purchased Upstate (KinaseProfiler panel)
Description: as §1

Syk = molecular target: T21, Syk (Homo sapiens, UniProt P43405); assay: Upstate KinaseProfiler radio-enzymatic filter binding assay, Syk; format: biochemical; conditions: at a concentration of 10 μM; read-out: percentage inhibition of Syk
T21 construct: purchased Upstate (KinaseProfiler panel)
Description: as §1

MKK6 = molecular target: T22, MKK6 (Homo sapiens, UniProt P52564); assay: Upstate KinaseProfiler radio-enzymatic filter binding assay, MKK6; format: biochemical; conditions: at a concentration of 10 μM; read-out: percentage inhibition of MKK6
T22 construct: purchased Upstate (KinaseProfiler panel)
Description: as §4, §5

GSK3β = molecular target: T23, GSK3β (Homo sapiens, UniProt P49841); assay: Upstate KinaseProfiler radio-enzymatic filter binding assay, GSK3β; format: biochemical; conditions: at a concentration of 10 μM; read-out: percentage inhibition of GSK3β
T23 construct: purchased Upstate (KinaseProfiler panel)
Description: as §1

SAPK2β = molecular target: T24, SAPK2β (Homo sapiens, UniProt Q15759); assay: Upstate KinaseProfiler radio-enzymatic filter binding assay, SAPK2β; format: biochemical; conditions: at a concentration of 10 μM; read-out: percentage inhibition of SAPK2β
T24 construct: purchased Upstate (KinaseProfiler panel)
Description: as §1

Flt3 = molecular target: T25, Flt3 (Homo sapiens, UniProt P36888); assay: Upstate KinaseProfiler radio-enzymatic filter binding assay, Flt3; format: biochemical; conditions: at a concentration of 10 μM; read-out: percentage inhibition of Flt3
T25 construct: purchased Upstate (KinaseProfiler panel)
Description: as §1

p70S6K = molecular target: T26, p70S6K (Homo sapiens, UniProt P23443); assay: Upstate KinaseProfiler radio-enzymatic filter binding assay, p70S6K; format: biochemical; conditions: at a concentration of 10 μM; read-out: percentage inhibition of p70S6K
T26 construct: purchased Upstate (KinaseProfiler panel)
Description: as §1

T14 sequence (P06239 whole entry): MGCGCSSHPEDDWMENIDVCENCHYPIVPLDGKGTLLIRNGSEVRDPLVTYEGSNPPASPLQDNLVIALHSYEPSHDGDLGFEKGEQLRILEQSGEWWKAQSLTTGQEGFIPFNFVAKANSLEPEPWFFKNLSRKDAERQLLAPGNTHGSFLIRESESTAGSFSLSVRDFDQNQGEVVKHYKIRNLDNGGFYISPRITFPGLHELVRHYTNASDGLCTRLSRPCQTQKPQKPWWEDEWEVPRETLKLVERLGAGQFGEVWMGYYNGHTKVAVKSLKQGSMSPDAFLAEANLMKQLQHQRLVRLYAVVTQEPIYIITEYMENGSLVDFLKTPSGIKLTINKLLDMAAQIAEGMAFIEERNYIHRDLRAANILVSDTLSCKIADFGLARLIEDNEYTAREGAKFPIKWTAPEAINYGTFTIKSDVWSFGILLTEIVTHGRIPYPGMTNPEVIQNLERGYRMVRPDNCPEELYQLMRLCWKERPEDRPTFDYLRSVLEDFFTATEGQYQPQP
T26 sequence (P23443 whole entry): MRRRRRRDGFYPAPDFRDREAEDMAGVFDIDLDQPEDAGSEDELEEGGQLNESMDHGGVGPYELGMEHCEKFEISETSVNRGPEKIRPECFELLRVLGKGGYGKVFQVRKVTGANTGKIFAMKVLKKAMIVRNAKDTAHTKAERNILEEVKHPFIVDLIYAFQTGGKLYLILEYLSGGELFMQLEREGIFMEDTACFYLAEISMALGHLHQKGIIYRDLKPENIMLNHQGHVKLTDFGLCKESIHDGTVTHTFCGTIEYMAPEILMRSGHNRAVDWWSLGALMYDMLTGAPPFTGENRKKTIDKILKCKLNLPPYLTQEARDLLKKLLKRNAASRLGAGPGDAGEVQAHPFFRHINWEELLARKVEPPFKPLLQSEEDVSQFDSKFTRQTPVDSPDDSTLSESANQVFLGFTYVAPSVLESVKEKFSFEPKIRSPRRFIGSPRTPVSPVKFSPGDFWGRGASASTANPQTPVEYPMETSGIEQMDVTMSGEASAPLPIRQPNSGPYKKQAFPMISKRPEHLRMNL
T19 sequence (P07332 whole entry): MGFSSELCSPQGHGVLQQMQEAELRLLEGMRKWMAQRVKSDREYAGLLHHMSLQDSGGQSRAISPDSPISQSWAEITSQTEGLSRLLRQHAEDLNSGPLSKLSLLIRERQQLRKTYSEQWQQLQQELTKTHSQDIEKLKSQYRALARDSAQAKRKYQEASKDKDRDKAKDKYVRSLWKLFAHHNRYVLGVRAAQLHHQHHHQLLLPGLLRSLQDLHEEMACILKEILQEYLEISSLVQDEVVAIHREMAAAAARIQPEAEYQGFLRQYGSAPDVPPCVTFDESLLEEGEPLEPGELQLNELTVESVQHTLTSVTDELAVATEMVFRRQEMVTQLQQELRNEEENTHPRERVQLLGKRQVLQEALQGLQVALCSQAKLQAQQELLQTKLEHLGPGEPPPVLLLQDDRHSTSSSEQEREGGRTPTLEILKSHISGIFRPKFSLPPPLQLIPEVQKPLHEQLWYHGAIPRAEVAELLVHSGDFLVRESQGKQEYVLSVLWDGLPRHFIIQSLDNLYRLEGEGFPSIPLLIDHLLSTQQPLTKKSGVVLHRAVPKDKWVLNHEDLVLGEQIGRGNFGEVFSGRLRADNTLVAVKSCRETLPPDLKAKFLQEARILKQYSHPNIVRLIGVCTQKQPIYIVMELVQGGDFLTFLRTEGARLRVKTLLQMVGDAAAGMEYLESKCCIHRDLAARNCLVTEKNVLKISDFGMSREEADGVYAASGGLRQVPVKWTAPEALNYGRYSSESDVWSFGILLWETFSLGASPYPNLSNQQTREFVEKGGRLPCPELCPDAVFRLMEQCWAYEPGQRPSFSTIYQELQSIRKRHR
T11 sequence (P51813 whole entry): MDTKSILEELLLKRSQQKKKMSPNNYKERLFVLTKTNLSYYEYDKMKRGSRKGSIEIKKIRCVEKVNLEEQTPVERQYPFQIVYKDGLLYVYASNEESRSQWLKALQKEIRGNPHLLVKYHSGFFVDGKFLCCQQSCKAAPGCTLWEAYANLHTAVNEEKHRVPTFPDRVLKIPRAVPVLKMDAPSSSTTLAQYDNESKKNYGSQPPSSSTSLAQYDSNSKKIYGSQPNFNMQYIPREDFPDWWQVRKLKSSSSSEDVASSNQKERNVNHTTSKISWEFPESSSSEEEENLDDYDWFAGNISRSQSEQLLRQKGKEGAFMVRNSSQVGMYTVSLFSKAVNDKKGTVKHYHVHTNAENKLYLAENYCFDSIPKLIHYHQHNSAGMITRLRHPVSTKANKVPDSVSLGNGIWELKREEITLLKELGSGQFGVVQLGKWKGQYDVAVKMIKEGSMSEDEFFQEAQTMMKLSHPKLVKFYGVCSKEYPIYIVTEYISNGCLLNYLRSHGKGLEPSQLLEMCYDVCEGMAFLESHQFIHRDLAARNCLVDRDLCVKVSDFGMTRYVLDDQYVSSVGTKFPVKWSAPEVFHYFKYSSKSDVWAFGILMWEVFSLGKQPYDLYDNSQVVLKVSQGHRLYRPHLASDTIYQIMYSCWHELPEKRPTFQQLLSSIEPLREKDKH
T3 sequence (P22607 23-806): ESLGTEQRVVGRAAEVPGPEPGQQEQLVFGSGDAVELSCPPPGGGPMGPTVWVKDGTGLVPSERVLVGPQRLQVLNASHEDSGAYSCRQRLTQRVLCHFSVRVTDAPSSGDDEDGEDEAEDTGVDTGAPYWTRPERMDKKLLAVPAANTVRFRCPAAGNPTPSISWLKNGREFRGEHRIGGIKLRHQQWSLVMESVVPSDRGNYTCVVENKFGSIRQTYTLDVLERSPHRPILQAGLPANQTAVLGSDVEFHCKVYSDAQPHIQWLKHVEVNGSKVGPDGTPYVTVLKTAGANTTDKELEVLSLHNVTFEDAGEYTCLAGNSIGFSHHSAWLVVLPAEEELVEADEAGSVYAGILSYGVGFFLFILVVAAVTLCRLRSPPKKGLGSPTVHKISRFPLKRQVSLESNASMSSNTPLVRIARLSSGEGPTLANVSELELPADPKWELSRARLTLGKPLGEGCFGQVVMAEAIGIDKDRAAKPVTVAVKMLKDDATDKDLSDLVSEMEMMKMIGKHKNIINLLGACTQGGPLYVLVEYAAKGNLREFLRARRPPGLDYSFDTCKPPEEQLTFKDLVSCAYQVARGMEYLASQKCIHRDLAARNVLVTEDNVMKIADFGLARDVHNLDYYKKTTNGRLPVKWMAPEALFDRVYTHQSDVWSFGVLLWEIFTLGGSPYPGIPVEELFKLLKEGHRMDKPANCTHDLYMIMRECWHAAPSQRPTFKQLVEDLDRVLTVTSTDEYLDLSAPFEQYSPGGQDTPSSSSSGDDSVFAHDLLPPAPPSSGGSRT
T17 sequence (Q16539 whole entry): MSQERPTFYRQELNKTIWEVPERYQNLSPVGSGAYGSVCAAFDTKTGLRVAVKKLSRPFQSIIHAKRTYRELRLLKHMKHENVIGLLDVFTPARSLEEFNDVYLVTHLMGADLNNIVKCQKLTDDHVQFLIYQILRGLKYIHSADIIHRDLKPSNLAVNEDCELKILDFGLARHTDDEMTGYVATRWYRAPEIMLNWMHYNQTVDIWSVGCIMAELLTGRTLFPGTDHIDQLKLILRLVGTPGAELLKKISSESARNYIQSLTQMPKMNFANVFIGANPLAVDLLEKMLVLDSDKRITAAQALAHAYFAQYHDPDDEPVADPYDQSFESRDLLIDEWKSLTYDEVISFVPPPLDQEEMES
T22 sequence (P52564 whole entry): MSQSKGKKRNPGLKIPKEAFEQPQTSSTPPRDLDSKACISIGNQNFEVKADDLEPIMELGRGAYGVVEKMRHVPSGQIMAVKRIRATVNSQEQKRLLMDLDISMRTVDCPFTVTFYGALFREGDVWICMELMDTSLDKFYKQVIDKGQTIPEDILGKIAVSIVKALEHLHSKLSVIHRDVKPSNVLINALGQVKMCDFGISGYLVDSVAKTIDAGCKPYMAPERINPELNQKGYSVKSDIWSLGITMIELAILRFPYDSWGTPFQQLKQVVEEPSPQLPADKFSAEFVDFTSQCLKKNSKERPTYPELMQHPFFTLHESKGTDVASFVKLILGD
T5 sequence (Q16620 32-822): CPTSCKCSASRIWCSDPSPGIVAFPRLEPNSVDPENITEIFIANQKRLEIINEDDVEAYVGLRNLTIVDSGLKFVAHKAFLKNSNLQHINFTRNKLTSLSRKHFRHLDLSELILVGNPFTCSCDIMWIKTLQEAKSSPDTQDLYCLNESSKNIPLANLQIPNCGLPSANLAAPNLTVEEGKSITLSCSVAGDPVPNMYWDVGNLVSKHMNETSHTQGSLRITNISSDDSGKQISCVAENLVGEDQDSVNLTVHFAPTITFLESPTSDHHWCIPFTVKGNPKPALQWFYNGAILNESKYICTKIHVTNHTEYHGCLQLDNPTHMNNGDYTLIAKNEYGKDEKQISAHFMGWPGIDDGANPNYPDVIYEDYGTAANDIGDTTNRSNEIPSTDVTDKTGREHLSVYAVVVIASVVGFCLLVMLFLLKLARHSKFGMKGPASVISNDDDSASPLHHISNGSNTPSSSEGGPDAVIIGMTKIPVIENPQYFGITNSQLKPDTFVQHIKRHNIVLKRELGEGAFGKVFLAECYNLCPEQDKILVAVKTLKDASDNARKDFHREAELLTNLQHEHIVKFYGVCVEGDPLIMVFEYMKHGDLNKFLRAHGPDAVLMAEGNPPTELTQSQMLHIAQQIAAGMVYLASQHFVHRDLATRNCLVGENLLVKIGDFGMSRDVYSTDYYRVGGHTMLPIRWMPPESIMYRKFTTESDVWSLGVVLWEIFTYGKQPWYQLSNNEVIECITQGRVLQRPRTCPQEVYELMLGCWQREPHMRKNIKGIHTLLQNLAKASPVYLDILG

inhibition at 10 µM (JNK1α1): 98%
inhibition at 10 µM (JNK2α2): 99%
inhibition at 10 µM (FGFR3): 98%
inhibition at 10 µM (CSK): 98%
inhibition at 10 µM (TrkB): 96%
IC50 (F317L Bcr-abl): < 0.5 nM
IC50 (G250E Bcr-abl): 23 nM
inhibition at 10 µM (IR): 60%
IC50 (T315I Bcr-abl): 55 nM
inhibition at 10 µM (MKK4): 92%
inhibition at 10 µM (Bmx): 100%
inhibition at 10 µM (Rsk1): 90%
inhibition at 10 µM (c-RAF): 100%
inhibition at 10 µM (Lck): 98%
IC50 (M351T Bcr-abl): < 0.5 nM
IC50 (E255V Bcr-abl): 13 nM
inhibition at 10 µM (SAPK2α): 95%
IC50 (wild type Bcr-abl): < 0.5 nM
inhibition at 10 µM (Fes): 100%
inhibition at 10 µM (PDGFRα): 76%
inhibition at 10 µM (Syk): 76%
inhibition at 10 µM (MKK6): 97%
inhibition at 10 µM (GSK3β): 53%
inhibition at 10 µM (SAPK2β): 99%
inhibition at 10 µM (Flt3): 64%
inhibition at 10 µM (p70S6K): 98%
Structure (SMILES): Cc1ccc(Nc2ncc3nc(-c4cc(NC(=O)c5cccc(C(F)(F)F)c5)ccc4C)c(=O)n(C)c3n2)cn1 [Example 2, N-[4-methyl-3-(8-methyl-2-(6-methyl-pyridin-3-ylamino)7-oxo-7,8-dihydropteridin-6-yl)-phenyl]-3-trifluoromethyl-benzamide]
